Data taken from ChEMBL document CHEMBL5303304, “EUbOPEN Chemogenomics Library - IncuCyte” (2023).

Legend:
Type in all cases: toxicity, cell-based
U2OS = assay: Incucyte cell viability with U2OS; settings: human, 10 µM, compound concentration 10 uM
HEK-293T = assay: Incucyte cell viability with HEK293T; settings: human, 10 µM, compound concentration 10 uM
Fibroblast = assay: Incucyte cell viability with human fibroblast; settings: 10 µM, compound concentration 10 uM
Also: unitless GR value; below 1 slowed growth and below 0 cell loss.

| Compound | Growth Rate (U2OS; 24 h, replicate number 1) | Growth Rate (HEK-293T; 6 h, replicate number 1) | Growth Rate (HEK-293T; 6 h, replicate number 2) | Growth Rate (HEK-293T; 12 h, replicate number 1) | Growth Rate (HEK-293T; 12 h, replicate number 2) | Growth Rate (HEK-293T; 18 h, replicate number 2) | Growth Rate (HEK-293T; 24 h, replicate number 1) | Growth Rate (HEK-293T; 24 h, replicate number 2) | Growth Rate (Fibroblast; 0 h, replicate number 1) | Growth Rate (Fibroblast; 6 h, replicate number 2) | Growth Rate (Fibroblast; 12 h, replicate number 2) | Growth Rate (Fibroblast; 18 h, replicate number 2) | Growth Rate (Fibroblast; 24 h, replicate number 2) | Growth Rate (U2OS; 0 h, replicate number 1) | Growth Rate (HEK-293T; 0 h, replicate number 1) | Growth Rate (HEK-293T; 0 h, replicate number 2) | Growth Rate (U2OS; 12 h, replicate number 2) | Growth Rate (U2OS; 18 h, replicate number 2) | Growth Rate (Fibroblast; 18 h, replicate number 1) | Growth Rate (U2OS; 6 h, replicate number 2) | further results |
| --- | --- | --- | --- | --- | --- | --- | --- | --- | --- | --- | --- | --- | --- | --- | --- | --- | --- | --- | --- | --- | --- |
| CC/C(=C(\c1ccc(O)cc1)c1ccc(OCCN(C)C)cc1)c1ccccc1 [AFIMOXIFENE] | 0.9 | -0.92 | -0.67 | -0.87 | -0.46 | -0.33 | -0.63 | -0.26 | 0.22 | 0.4 | 0.3 | 0.13 | 0.18 |  |  |  |  |  |  |  | Growth Rate (U2OS; 0 h, replicate number 2): -0.96; Growth Rate (HEK-293T; 18 h, replicate number 1): -0.68; Growth Rate (Fibroblast; 6 h, replicate number 1): -0.74 |
| N#CC[C@H](C1CCCC1)n1cc(-c2ncnc3[nH]ccc23)cn1 [RUXOLITINIB] |  | 0.27 |  | 0.86 |  |  |  |  | -1 |  |  |  |  | -1 | -0.91 | -0.15 |  |  |  |  |  |
| COC(=O)Nc1nc2c(s1)-c1c(c(-c3cccnc3)nn1-c1ccc(C3(N(C)C)CC3)cc1)CC2.Cl.Cl |  |  |  |  |  |  |  |  | -0.29 |  |  |  |  | -0.99 | -1 |  | 0.96 | 0.74 |  |  | Growth Rate (U2OS; 24 h, replicate number 2): 0.64; Growth Rate (Fibroblast; 0 h, replicate number 2): -1 |
| CC1CN(CC(=O)N2CC(C)(C)c3nc(CO)c(Cc4ccc(F)cc4)cc32)C(CN2CCOCC2C)CN1 (stereo not drawn) |  | 0.63 | 0.88 |  | 0.96 |  |  | 0.89 |  | 0.4 | 0.94 | 0.94 | 0.9 | -0.23 |  | -0.63 |  |  | 0.98 |  | Growth Rate (Fibroblast; 6 h, replicate number 1): 0.63 |
| COc1ccc(-n2nc(C(F)(F)F)cc2-c2ccc(Cl)cc2)cc1 [SC-560] |  |  | 0.8 |  |  |  |  | 0.9 | -1 | -0.87 | 0.09 | 0.54 | 0.62 |  | 0.2 | 0.61 | 0.86 | 0.95 | 0.62 | 0.83 | Growth Rate (U2OS; 6 h, replicate number 1): 0.67; Growth Rate (U2OS; 24 h, replicate number 2): 0.98; Growth Rate (Fibroblast; 6 h, replicate number 1): 0.63; Growth Rate (Fibroblast; 12 h, replicate number 1): 0.59; Growth Rate (Fibroblast; 24 h, replicate number 1): 0.68 |
| CNC(=O)c1cc(C(=O)NC2CC2)cn(Cc2ccccc2)c1=O [GSK620] | 0.88 |  | 0.74 |  | 0.76 | 0.99 | 0.93 | 0.8 | 0.38 | 0.25 |  |  |  | -0.46 | -0.72 | 0.91 |  |  |  | 0.92 | Growth Rate (U2OS; 6 h, replicate number 1): 0.54; Growth Rate (U2OS; 12 h, replicate number 1): 0.69; Growth Rate (U2OS; 18 h, replicate number 1): 0.66 |
| COc1ccccc1-n1nc(C2CC(C)(C)OC(C)(C)C2)cc1-c1ccc(Cl)cc1 | 0.94 | -0.05 | -0.13 | 0.46 | 0.41 | 0.54 | 0.95 | 0.64 | -0.49 | -1 | 0.99 | 0.87 |  |  |  |  | 0.93 | 0.96 | -0.27 | 0.41 | Growth Rate (U2OS; 0 h, replicate number 2): -0.66; Growth Rate (U2OS; 12 h, replicate number 1): 0.85; Growth Rate (U2OS; 18 h, replicate number 1): 0.94; Growth Rate (U2OS; 24 h, replicate number 2): 0.95; Growth Rate (HEK-293T; 18 h, replicate number 1): 0.79 |
| CCN(c1ccccc1)c1cc(NC)[n+](C)c(C)n1.[Cl-] | 0.87 | 0.95 |  | 0.84 |  | 0.99 | 0.79 |  | -0.7 | -1 | 0.8 |  | 0.91 |  |  | 0.56 | 0.84 | 0.83 | -0.22 | 0.69 | Growth Rate (U2OS; 0 h, replicate number 2): -0.9; Growth Rate (U2OS; 6 h, replicate number 1): 0.41; Growth Rate (HEK-293T; 18 h, replicate number 1): 0.58; Growth Rate (Fibroblast; 24 h, replicate number 1): 0.44 |
